These results are taken from US9320736B2, “Zinc chelating agents for depleting XIAP and sensitizing tumor cells to apoptosis” (Institute for Cancer Research, priority 2012, dated 2016).

“Also recorded” adds a separate entry of the source.

Series [1] relates to XIAP. The series is described as follows: XIAP depletion in PC-3 cells by Western blot / immunoblotting. The series is classed as cell-based, human. Particulars: for XIAP depletion (Western blot): chelator 50 μM, 4 hours, FIG. 3/4; for depletion of XIAP compared with TPEN: prostate cancer cells. The protocol: PC-3 cells were cultured in medium alone, or in the presence of PPIX (50 μM) for 4 hours, or 5-Ala (250 μM) for 24 hours. Expression of XIAP and GAPDH (control) was detected by immunoblotting with an antibody to XIAP or GADPH, respectively.
Cell Lines and Culture Conditions. A PC-3 castration-resistant prostate cancer cell line was obtained from the American Type and Culture Collection (Rockville, Md.). PC-3 cells were maintained in complete cell culture medium (RPMI 1640 medium (Bio-Whittaker, Walkersville, Md.) supplemented with 10% FCS (Hyclone, Logan, Utah), gentamicin (50 mg/L), sodium pyruvate (1 mM) and non-essential amino acids (0.1 mM)).
Analysis of XIAP Depletion in PC-3 Cell Line Following Administration of Heterocyclic Zn Chelators. PC-3 cells were cultured under three distinct conditions; medium alone, with administration of TPEN (8 μM) as a positive control for 2 hours, and with administration of an individual Zn chelators (MR) (50 μM) for 4 hours.
Western blot analysis was performed to assess for level of XIAP depletion. Whole cell lysates were prepared as described previously (Kolenko V et al. (1999) J. Immunol. 163: 590-8). Protein concentrations were measured with BCA protein assay reagents (Pierce, Rockford, Ill.). Equivalent amounts of proteins (20 μg) were mixed with an equal volume of 2× Laemmli sample buffer, boiled and resolved by electrophoresis in 10% sodium dodecyl sulfate-polyacrylamide gels (SDS-PAGE). The proteins were transferred from the gel to a nitrocellulose membrane using an electroblotting apparatus (Bio-Rad) (15 V, 3 mA/cm2 for 24 minutes).
Membranes were then incubated in a blocking solution containing 5% nonfat dry milk overnight to inhibit nonspecific binding. The membranes were then incubated with specific antibody (1-3 μg/ml) for 2 hours. After washing in TRIS/0.1% Tween 20 for 30 minutes, membranes were incubated for another 30 minutes with horseradish peroxidase-conjugated secondary antibody. The membranes were then washed and developed with enhanced chemiluminescence (ECL Western Blotting Kit, Amersham, Arlington Heights, Ill.).
(In general: In western blotting, separated proteins are transferred to a membrane and probed.)

For series [2], the system named is PC-3 cells. Kind of series: TRAIL-mediated apoptosis in PC-3 cells (DNA fragmentation assay). The series is classed as cell-based, human. As to conditions: chelator combined with TRAIL, FIG. 4.
Series [3] concerns XIAP mRNA. Kind of series: XIAP mRNA level in TPEN-treated cells. The series is classed as cell-based. From the text: (§1) The inhibition of XIAP expression is selective, as TPEN has no effect on the expression levels of other zinc-containing members of IAP family, i.e., cIAP1, cIAP2 and surviving. As well, the XIAP mRNA level is not reduced in TPEN-treated cells. Therefore, zinc chelation by TPEN induces depletion of XIAP specifically at the protein level. […] Importantly, the sensitization to therapeutic agents is specific to malignant but not to benign cells. This cytotoxic specificity for malignant cells is consistent with experiments showing that XIAP is preferentially degraded in malignant but not in benign cells upon zinc chelation and stems from blunted regulation of zinc uptake transporters upon carcinogenesis.

Series [4] has as its system XIAP. As to conditions: human prostate cancer cells; Makhov et al. 2008; cited from earlier work.
Series [5] relates to XIAP. Kind of series: XIAP protein levels in xenograft animal model of human prostate cancer. The series is classed as in vivo.
Text: as §1
(A xenograft is tissue or cells of one species grown in another, often human tumour cells in immunodeficient mice.)

The subject of series [6] is malignant cells. The series is described as follows: Potentiation of therapeutic agents by TPEN in malignant cells. Type of series: cell-based. Particulars: specific to malignant, not benign cells.
Text: as §1

The test system of series [7] is cIAP1, cIAP2 and surviving. The series is described as follows: Expression of other zinc-containing IAP family members in TPEN-treated cells. Type of series: cell-based.
Text: as §1

A short description of series [8]: Intravenous tolerability in C.B17/Icr-scid mice. Type of series: in vivo. Particulars: two 6 week-old male C.B17/Icr-scid mice, iv 100 μl at 15 mM. The protocol:
Animal Studies. Two 6 week-old male C.B17/Icr-scid mice were injected intravenously with 100 μl of MR13 chelator at final concentration of 15 mM.

In series [9] the test system is PC-3 tumors. The series is described as follows: PC-3 tumor growth in ectopic xenograft mouse model of prostate cancer. Particulars: 5-Ala ip 10 mg/mouse daily combined with HGS-ETR1 iv 0.25 mg/mouse once a week, PC-3 tumors in male C.B17/Icr-scid mice, FIG. 2. The series is classed as in vivo. Here is the method: PC-3 tumors were established in male C.B17/Icr-scid mice. When tumor volumes reach approximately 200 mm^3, the animals were grouped (n=5 for each group) and treated with saline (control), an ip injection of 5-Ala (10 mg/mouse, daily) and/or an iv injection of HGS-ETR1 (0.25 mg/mouse once a week).

Turning to `O=S(=O)(Nc1ccccc1-c1nc2ccccc2[nH]1)c1ccc(F)cc1` [MR66], in series [1] (PC-3 cells), the “XIAP depletion (Western blot)” value is listed as “failed to induce XIAP depletion”. Also, the “promotion of TRAIL-mediated cell death / apoptotic response” value in series [2] is listed as “did not succeeded in producing an apoptotic response”.

Take `c1ccc(CN(CCN(Cc2ccccn2)Cc2ccccn2)Cc2ccccn2)nc1` [TPEN, N,N,N′,N′-tetrakis(2-pyridylmethyl)-ethylenediamine]: the “XIAP mRNA level” value in [3] is on record as “not reduced”. The “depletion of XIAP” value in series [4] was “selective and rapid depletion; also recorded: rapidly depletes XIAP”. Besides, the “XIAP protein levels in vivo” value in series [5] was “rapid decrease of XIAP protein levels”. Besides, the “potentiation of the action of HGS-ETR1 (mapatumumab) and docetaxel” value in series [6] is “markedly potentiated”. Also, the “effect on expression levels of other zinc-containing IAP family members” value in [7] is listed as “no effect”.

On to `O=S(=O)(Nc1cccc2cccnc12)c1ccc(F)c(Cl)c1` [MR13], for which, in [8], the “tolerability of intravenous administration” value is “well tolerated”. In addition, the “XIAP depletion (Western blot)” value in series [1] (PC-3 cells) is listed as “completely depleted XIAP”. The “depletion of XIAP compared with TPEN” value in series [1] is recorded as “at least as effectively as TPEN”. Further, the “promotion of TRAIL-mediated cell death / apoptotic response” value in series [2] is “promoted TRAIL-mediated cell death”.

For the compound `N#Cc1ccc(S(=O)(=O)Nc2cccc3cccnc23)cc1` [MR44], the “XIAP depletion (Western blot)” value in [1] (PC-3 cells) was “completely depleted XIAP”. Further, in series [1], the “depletion of XIAP compared with TPEN” value is “at least as effectively as TPEN”. The “promotion of TRAIL-mediated cell death / apoptotic response” value in series [2] is on record as “promoted TRAIL-mediated cell death”.

On to `NCC(=O)CCC(=O)O` [5-Ala, 5-aminolevulinic acid, reference compound], for which the figures for the “tumor growth / antitumor effect” value in series [9] and in [9] (listed as 5-ALA) were “augments HGS-ETR1 the antitumor effect” and “completely arrested tumor growth”, respectively. In addition, the “XIAP expression (immunoblot)” value in series [1] (PC-3 cells, 5-Ala 250 μM, 24 hours, FIG. 1) is listed as “reduces XIAP levels; also recorded: significantly reduced XIAP expression”.

Take `O=S(=O)(Nc1ccccc1-c1nc2ccccc2[nH]1)c1c(F)cccc1F` [MR96]: the “XIAP depletion (Western blot)” value in series [1] (PC-3 cells) is given as “failed to induce XIAP depletion”. The “promotion of TRAIL-mediated cell death / apoptotic response” value in [2] was “did not succeeded in producing an apoptotic response”.
